Results on one compound are retold here after patent publication US20080051413A1, “Nitrophenylpiperazine derivative of xanthine which relaxes tracheal airway and increases respiratory performance” (KAOHSIUNG MEDICAL UNIVERSITY, priority 2006, published 2008).

SMILES strings stand for the structures.

For data set [1], the system named is PDE4 purified from human U-937 pronocytic cells. Nature of the data set: Phosphodiesterase activity, PDE4. In kind it is biochemical. To be noted: 10 _M compound, n = 3. As to the method: Phosphodiesterase Activity: PDE activity was determined by the method of Nicholson et al. (Nicholson C D, Challiss R A, and Shahid M (1991) Differential modulation of tissue function and therapeutic potential of selective inhibitors of cyclic nucleotide phosphodiesterase isonzymes. Trends Pharmaclo Sci 12:19-27). PDE3 and PDE5 purified from human platelets and PDE4 purified from human U-937 pronocytic cells were used. Test compound (10 _M) or vehicle was incubated with 0.2 _g of enzyme and 1 _M cAMP containing 0.01 _M [^3H]cAMP in Tris buffer, pH 7.5, for 20 min at 25_. The reaction was terminated by boiling for 2 min, and the resulting […] was converted to adenosine by the addition of 10 mg/ml snake venom nucleotidase, which is followed by a further incubation at 37_for 10 min. Unhydrolyzed cAMP was bound to AG1-X2 resin, and the remaining [^3H]adenosine in the aqueous phase was quantitated by scintillation counting.

Data set [2] concerns TNF-_-induced bronchoconstriction. The experiment in a line: TNF-_-induced bronchoconstriction, intratracheal instillation. Type of data set: in vivo, guinea pig. As to the method:
Animals: Male Dunkin Harley guinea pigs (350-450 g) were provide by the National Laboratory Animal Breeding and Research Center (Taipei, Taiwan) and housed under conditions of constant temperature and controlled illumination. Food and water were available and libitum. The study was approved by the Animal Care and Use Committee of the Kaohsiung Medical University.
Pulmonary Function: Guinea pegs (350-450 g) were anesthetized with pentobarbital (40 mg/kg i.p.) and maintained with further i.v. doses of 2 to 5 mg/kg when required according to methods previously described (Wu B N, Lin R J, Lo Y C, Shen K P, Wang C C, Lin Y T, and Chen I J (2004) KMUP-1, a xanthine derivative, induces relaxation of guinea-pig isolated trachea: the role of the epithelium, cyclic nucleotides and K^+ channels, Br J Pharmacol 142:1105-1114). The animal was tethered in a supine position, and the trachea was cannulated below the larynx with a short tracheal cannula via a tracheotomy. Tracheal pressure was measured by a catheter connected to the side arm of the tracheal cannula. The carotid artery and jugular vein were cannulated to monitor blood pressure and heart rate and for drug administration, respectively. Throughout the experiment, the body temperature of the guinea pig was maintained at 37_. Measurements of pulmonary cardiac function were carried out as previously described (Hsu T H, Lai Y L, and Kou Y R (1998) Acetylcholine and tachykinin receptor antagonists attenuate wood smoke-induced bronchoconstriction in Guinea pigs. Eur J Pharmacol 360:175-183). Total lung resistance (RL) and dynamic lung compliance (Cdyn) were measured on a breath-by-breath basis using a computer equipped with an A/D interface (DAS 1600; Buxco Electronics, Inc., Wilmington, N.C.) and software (version 1.5.7; Buxco Electronics, Inc.). Results obtained from the computer analysis were checked for accuracy by comparison with those calculated manually.
Animals were allowed to stabilize for 10 min following surgical manipulations before the test agent was administered. […]

The mark [3] stands for this setting: 0.5, 1.0, 2.0 mg/kg intratracheal, 15 min prior to TNF-_ (0.01 mg/kg).

`Cn1c(=O)c2c(ncn2CCN2CCN(c3ccc([N+](=O)[O-])cc3)CC2)n(C)c1=O` [KMUP-3]: the “PDE4 Inhibition” value in data set [1] is 48 ± 2.1 %. In data set [2] (setting [3]), the “effect on Cdyn in TNF-_-induced bronchocontraction (FIG. 2)” value is reported as “increasing Cdyn” and the “effect on RL in TNF-_-induced bronchocontraction (FIG. 2)” value is “decreasing RL”. Also, in data set [2] (intratracheal instillation, during recording of lung function), the “Blood pressure and heart rate” value is recorded as “not significantly changed”.
